The text below walks through data of patent publication US4820690A (G. D. Searle & Co., priority 1984, dated 1989).

Bounds are passed on as bounds.

In assay [1] the test system is cysteamine induced duodenal ulcers. Description: Healing of cysteamine-induced perforating duodenal ulcers, therapy in drinking water for 50 days (Example 1). It counts as in vivo. Particulars: rats, 50 days therapy from day 7 after cysteamine, urogastrone 6 μg./rat/day, cimetidine 100 mg./rat/day; for Healed (number of healed ulcers) / Unhealed (number of unhealed ulcers): n 15. As to the method:
Rats with perforating duodenal ulcers confirmed by laparotomy were selected from a large number and given two doses of cysteamine as described in the following protocol. These animals were randomly assigned to treatment groups of 15 rats each. The protocol utilises 2 doses of cysteamine (300 mg./kg. and 150 mg./kg., 6 hours apart). This procedure produces deep perforating duodenal ulcers in a majority of the rats injected. The "chronic" ulcers heal extremely slowly. Previous studies have shown that after 50 days only 20% have healed as judged by reepithelialization of the surface. Even after 200 days, 36% remain unhealed. In order to provide for a reliable experimental protocol, rats given 2 doses of cysteamine are subjected to an intra-abdominal inspection by laparotomy 5 days after induction. Only those rats in which perforation of the ulcer to the duodenal external serosal surface has occurred are included in the experimental groups. Rats with non-perforating ulcers are discarded. Therapy by drug or placebo then begins on day 7 post-induction.On termination after a standardised period of (21 to 50 days) therapy the duodenum is removed from all rats, fixed and stained with PAS and the number of healed and unhealed ulcers determined by macroscopic examination of the mucosal surface with a stereomicroscope. Healing is defined as restoration of complete mucosal integrity by reepithelialisation of the surface. This is confirmed by subsequent histology. In this example, therapy commenced on day 7 following cysteamine and continued for 50 days.

Assay [2] relates to gastric acid secretion. Kind of assay: Histamine stimulated acid secretion in beagle dogs with Heidenhain pouches (Example 3). Particulars: Heidenhain pouch dogs; for effect on acid secretion, intravenous administration: intravenously administered. The assay is classed as in vivo, dog. The protocol:
Male beagle dogs (14-22 kg.) were prepared with isolated Heidenhain (vagal denervated) pouches derived from the fundic area of the stomach by the method of Rudick et al, J. Surg. Res. 7: 383, 1967. Animals were allowed 4-6 weeks to recover from surgery and given a 2-3 month training period to standardise laboratory behaviour and secretory responses. The dogs were fasted for 23 hours prior to use, the pouch then flushed with warm water and histamine infused subcutaneously at a rate of 10 μg./min. Pouch secretions were collected every 15 minutes, their volume measured and aliquots titrated to pH 7.0 with 100 mM NaOH.

The subject of assay [3] is gastrointestinal mucosa. To be noted: administered concurrently with or prior to the injurious stimuli; cited from earlier work.
Assay [4] concerns acid secretion in the stomach. To be noted: administered by a systemic route; cited from earlier work.
In assay [5] the test system is gastrointestinal epithelial proliferation. Description: Crypt cell production rate of gastrointestinal epithelium in rats on total parenteral nutrition (Example 4). The assay is classed as in vivo, rat. Particulars: intragastric infusion of similar or much larger doses than i.v.
Experimental: These animals have permanent indwelling i.v. catheters connected to infusion pumps via 360° swivel joints which allow normal mobility of the rats within their cages. A complete parenteral food mixture is infused through the catheters at a rate of 60 ml./rat/24 h. The animals are allowed water in the normal way but no food by mouth.
Epithelial cell turnover in these experiments was determined as the crypt cell production rate (CCPR) at each site examined. CCPR was defined as the number of new cells produced per mucosal crypt per hour (for method of determination see Al Nafussi and Wright, Virch. Arch. Cell Pathol. 40: 63, 1982).
Infusion was continued for 10 days.
Assay [6] concerns gastric acid secretion. Particulars: administered intravenously to animals; cited from earlier work.
Assay [7] relates to cysteamine induced duodenal ulcers. Kind of assay: Healing of cysteamine-induced duodenal ulcers, therapy by oral gavage for 21 days, assessed blind by 2 observers (Example 2). It counts as in vivo. Particulars: rats, 10 μg./rat/dose by oral gavage three times a day. The protocol:
The protocol utilises 2 doses of cysteamine (300 mg./kg. and 150 mg./kg., 6 hours apart).
In order to provide for a reliable experimental protocol, rats given 2 doses of cysteamine are subjected to an intra-abdominal inspection by laparotomy 5 days after induction. Only those rats in which perforation of the ulcer to the duodenal external serosal surface has occurred are included in the experimental groups. Rats with non-perforating ulcers are discarded. Therapy by drug or placebo then begins on day 7 post-induction.On termination after a standardised period of (21 to 50 days) therapy the duodenum is removed from all rats, fixed and stained with PAS and the number of healed and unhealed ulcers determined by macroscopic examination of the mucosal surface with a stereomicroscope. Healing is defined as restoration of complete mucosal integrity by reepithelialisation of the surface.
In this Example the same protocol was followed as in Example 1 but therapy was continued for only 21 days after commencing on day 7 following ulcer induction.

In the case of `CN/C(=N/CCSCc1nc[nH]c1C)NC#N` [Cimetidine, reference compound], in assay [1], the “Percentage Rate (healed)” value is 40%, the “Healed (number of healed ulcers)” value turned out to be 6 and the “Unhealed (number of unhealed ulcers)” value stood at 9.

For “mEGF: epidermal growth factor from mouse salivary glands, polypeptide of 53 amino acids resembling beta-urogastrone (NSYPGCPSSYDGYCLNGGVCMHIESLDSYTCNCVIGYSGDRCQTRDLRWWELR; Epidermal growth factor; UniProt P01132 977-1029, looked up) [reference compound]”, the “effect on acid secretion, intravenous administration” value in assay [2] is “inhibited acid secretion”. In addition, the “protection of the gastrointestinal mucosa against damaging stimuli and ulcer formation” value in assay [3] is listed as “protect the gastrointestinal mucosa”.

Take “Urogastrone: active form of human urogastrone, polypeptide hormone of 53 amino acids; recombinant derived, produced by microbial methods”: the “time to peak inhibition of the acid secretion response to histamine” value in assay [2] (after intravenous bolus injection) was at most 30 min. The “dose required to produce a 50% inhibition of acid secretion” value in assay [2] (intravenous bolus dose, histamine 10 μg./min s.c., from log-linear dose response regression plots) was found to be 0.27 µg/kg. Also, the “effect on acid secretion, intravenous administration” value in assay [2] is “inhibited acid secretion”. The “effect on acid secretion, oral administration” value in assay [2] (single oral solution dose, even at 4 mg. (approximately 200 μg./kg.)) is listed as “no effect on acid secretion”. Also, the “protection of the gastrointestinal mucosa against damaging stimuli and ulcer formation” value in assay [3] was “protect the gastrointestinal mucosa”. Moreover, in assay [4], the “inhibition of acid secretion in the stomach of humans” value is “inhibit acid secretion”. In addition, the “effect on gastrointestinal epithelial proliferation, intragastric infusion” value in assay [5] was “no effect”. Further, in assay [1], the “Percentage Rate (healed)” value is 43%, the “Healed (number of healed ulcers)” value is 6 and the “Unhealed (number of unhealed ulcers)” value is 8. Moreover, the “activity in inhibiting acid secretion, beta- versus gamma-urogastrone” value in assay [6] was “equal activity”. Besides, in assay [7], the “Percentage healed, observer (1)” value was 36% and the “Percentage healed, observer (2)” value worked out at 23%. In assay [7] (n 22), the “Healed, observer (1)” value turned out to be 8; the “Unhealed, observer (1)” value came out at 14; the “Unhealed, observer (2)” value stood at 17.

Regarding “gamma-urogastrone: 52 amino acid form that differs from beta-urogastrone only in lacking the carboxy-terminal arginine residue (NSDSECPLSHDGYCLHDGVCMYIEALDKYACNCVVGYIGERCQYRDLKWWEL; Epidermal growth factor; UniProt P01133 971-1022, looked up, fragment)”, the “activity in inhibiting acid secretion, beta- versus gamma-urogastrone” value in assay [6] is on record as “equal activity”.
